{"source": "patent US12447153B2", "about": "“HER2 mutation inhibitors” (Array BioPharma Inc., priority 2021, dated 2025)", "key": {"EGFR wild type (EGFR WT)": {"target": "EGFR wild type (EGFR WT) (Homo sapiens (Human), UniProt P00533)", "sequence (P00533 25-1210)": "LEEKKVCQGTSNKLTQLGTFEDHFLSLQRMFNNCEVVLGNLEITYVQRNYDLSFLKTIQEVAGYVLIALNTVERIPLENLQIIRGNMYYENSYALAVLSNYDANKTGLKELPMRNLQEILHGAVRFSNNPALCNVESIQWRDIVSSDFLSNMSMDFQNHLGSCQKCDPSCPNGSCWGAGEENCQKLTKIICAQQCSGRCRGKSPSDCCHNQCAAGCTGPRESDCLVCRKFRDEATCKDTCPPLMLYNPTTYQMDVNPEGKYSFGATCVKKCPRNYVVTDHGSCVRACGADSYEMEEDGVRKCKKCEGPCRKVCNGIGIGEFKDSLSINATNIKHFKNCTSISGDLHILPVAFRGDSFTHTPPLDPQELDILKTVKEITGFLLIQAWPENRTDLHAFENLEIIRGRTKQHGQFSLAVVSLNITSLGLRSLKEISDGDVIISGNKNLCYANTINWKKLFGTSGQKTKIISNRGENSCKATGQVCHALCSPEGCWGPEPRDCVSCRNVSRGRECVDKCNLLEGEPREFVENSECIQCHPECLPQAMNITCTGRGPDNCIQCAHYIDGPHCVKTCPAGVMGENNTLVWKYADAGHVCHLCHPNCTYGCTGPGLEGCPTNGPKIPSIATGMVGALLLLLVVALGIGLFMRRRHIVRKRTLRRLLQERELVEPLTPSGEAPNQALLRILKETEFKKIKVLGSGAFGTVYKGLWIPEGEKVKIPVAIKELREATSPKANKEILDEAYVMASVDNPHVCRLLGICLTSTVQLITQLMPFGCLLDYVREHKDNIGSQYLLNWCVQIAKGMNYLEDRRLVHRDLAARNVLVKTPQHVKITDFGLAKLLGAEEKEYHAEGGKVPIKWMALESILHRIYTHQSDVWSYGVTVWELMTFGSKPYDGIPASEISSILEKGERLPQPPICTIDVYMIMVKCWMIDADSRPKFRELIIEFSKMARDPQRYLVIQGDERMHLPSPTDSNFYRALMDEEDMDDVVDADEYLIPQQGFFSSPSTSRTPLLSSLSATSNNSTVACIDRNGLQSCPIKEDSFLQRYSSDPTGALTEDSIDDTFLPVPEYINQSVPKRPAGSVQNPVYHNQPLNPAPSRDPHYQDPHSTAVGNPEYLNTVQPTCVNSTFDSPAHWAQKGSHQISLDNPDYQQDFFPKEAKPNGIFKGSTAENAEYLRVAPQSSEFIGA", "assay": "Cellular Phosphorylation Assay, Assay 5 (EGF-stimulated EGFR phosphorylation, NIH 3T3 cells)", "type": "cell-based"}, "[1]": {"target": "ErbB2 with Exon 20 YVMA insertion (HER2-YVMA) (Homo sapiens (Human), UniProt P04626, INS775YVMA)", "sequence (P04626 other isoform, or with tags, fused parts or gaps ins YVMA behind 775)": "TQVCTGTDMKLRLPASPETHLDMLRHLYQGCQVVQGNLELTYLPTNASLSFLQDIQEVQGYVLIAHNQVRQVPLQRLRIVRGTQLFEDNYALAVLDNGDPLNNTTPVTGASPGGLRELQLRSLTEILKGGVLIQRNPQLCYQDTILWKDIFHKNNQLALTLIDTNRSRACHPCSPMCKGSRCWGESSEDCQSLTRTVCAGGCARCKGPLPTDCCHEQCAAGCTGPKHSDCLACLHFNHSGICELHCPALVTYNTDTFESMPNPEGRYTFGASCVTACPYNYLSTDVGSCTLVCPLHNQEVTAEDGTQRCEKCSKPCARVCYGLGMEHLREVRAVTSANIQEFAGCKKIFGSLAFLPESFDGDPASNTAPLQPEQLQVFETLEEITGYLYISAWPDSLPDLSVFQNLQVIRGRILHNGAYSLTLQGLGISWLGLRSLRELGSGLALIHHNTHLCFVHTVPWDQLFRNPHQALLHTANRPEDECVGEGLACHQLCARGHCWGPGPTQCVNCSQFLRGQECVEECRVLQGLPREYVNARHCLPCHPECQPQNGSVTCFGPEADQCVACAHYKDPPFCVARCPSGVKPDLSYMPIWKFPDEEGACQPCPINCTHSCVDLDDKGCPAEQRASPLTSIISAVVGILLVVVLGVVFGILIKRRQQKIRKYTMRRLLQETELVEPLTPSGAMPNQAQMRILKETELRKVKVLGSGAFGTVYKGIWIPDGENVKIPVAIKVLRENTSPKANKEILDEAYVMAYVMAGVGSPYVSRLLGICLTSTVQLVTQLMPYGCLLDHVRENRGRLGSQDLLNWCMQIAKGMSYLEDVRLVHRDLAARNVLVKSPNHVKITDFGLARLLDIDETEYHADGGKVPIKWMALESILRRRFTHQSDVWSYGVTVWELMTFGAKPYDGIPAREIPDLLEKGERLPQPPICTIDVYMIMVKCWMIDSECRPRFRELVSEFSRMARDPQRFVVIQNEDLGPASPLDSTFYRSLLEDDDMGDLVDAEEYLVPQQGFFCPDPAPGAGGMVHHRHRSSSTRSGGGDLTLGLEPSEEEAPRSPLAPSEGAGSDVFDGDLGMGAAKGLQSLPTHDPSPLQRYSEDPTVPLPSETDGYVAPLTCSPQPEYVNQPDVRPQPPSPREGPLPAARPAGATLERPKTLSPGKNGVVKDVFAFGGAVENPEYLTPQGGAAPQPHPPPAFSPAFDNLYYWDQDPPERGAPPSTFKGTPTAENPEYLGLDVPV", "assay": "Cellular Phosphorylation Assay, Assay 4 (constitutive ErbB2 phosphorylation, NIH 3T3 cells)", "type": "cell-based", "description": "NIH 3T3 cells were engineered to express ErbB2 with Exon 20 YVMA insertion (HER2-YVMA (SEQ ID NO: 2); Assay 4) or EGFR wild type (EGFR WT; Assay 5) with constructs obtained from GenScript and grown in DMEM supplemented with 10% fetal bovine serum and 15 μg/ml blasticidin. […] Serially diluted compounds were added to the plates for 1 hour at 37° C./5% CO2. EGFR WT cells were stimulated with 100 ng/ml rEGF for an additional 10 minutes at 37° C./5% CO2.\nAfter compound incubation, medium was removed from the cells, which were then fixed in 3.7% formaldehyde in PBS at room temperature for 20 minutes. Following a wash with PBS, cells were permeabilized with 100% methanol at room temperature for 10 minutes. Cells were then washed with PBS/0.05% Tween-20 and blocked with Odyssey blocking buffer (LI-COR Biosciences) for at least 1 hour at room temperature. Antibodies to phosphorylated ErbB2 (Y1196, Cell Signaling #6942) or phosphorylated EGFR (Y1068, Cell Signaling #3777) and GAPDH (Millipore #MAB374) were added to the cells in blocking buffer containing 0.05% azide and incubated overnight at 4° C. After washing with PBS/0.05% Tween-20, the cells were incubated with fluorescently labeled secondary anti-rabbit antibody (LiCOR, IRDye 800CW #926-32211) and anti-mouse antibody (Molecular Probes, Alexa Fluor 680 #A21058) for 1 hour at room temperature in the dark. Cells were then washed and analyzed for fluorescence at both wavelengths using the Odyssey Infrared Imaging System (LI-COR Biosciences). Phosphorylated ErbB2 and EGFR signal was normalized to GAPDH signal to generate curves and calculate IC50 values."}, "ErbB2 WT": {"target": "ErbB2 WT (Homo sapiens (Human), UniProt P04626)", "sequence (P04626 23-1255)": "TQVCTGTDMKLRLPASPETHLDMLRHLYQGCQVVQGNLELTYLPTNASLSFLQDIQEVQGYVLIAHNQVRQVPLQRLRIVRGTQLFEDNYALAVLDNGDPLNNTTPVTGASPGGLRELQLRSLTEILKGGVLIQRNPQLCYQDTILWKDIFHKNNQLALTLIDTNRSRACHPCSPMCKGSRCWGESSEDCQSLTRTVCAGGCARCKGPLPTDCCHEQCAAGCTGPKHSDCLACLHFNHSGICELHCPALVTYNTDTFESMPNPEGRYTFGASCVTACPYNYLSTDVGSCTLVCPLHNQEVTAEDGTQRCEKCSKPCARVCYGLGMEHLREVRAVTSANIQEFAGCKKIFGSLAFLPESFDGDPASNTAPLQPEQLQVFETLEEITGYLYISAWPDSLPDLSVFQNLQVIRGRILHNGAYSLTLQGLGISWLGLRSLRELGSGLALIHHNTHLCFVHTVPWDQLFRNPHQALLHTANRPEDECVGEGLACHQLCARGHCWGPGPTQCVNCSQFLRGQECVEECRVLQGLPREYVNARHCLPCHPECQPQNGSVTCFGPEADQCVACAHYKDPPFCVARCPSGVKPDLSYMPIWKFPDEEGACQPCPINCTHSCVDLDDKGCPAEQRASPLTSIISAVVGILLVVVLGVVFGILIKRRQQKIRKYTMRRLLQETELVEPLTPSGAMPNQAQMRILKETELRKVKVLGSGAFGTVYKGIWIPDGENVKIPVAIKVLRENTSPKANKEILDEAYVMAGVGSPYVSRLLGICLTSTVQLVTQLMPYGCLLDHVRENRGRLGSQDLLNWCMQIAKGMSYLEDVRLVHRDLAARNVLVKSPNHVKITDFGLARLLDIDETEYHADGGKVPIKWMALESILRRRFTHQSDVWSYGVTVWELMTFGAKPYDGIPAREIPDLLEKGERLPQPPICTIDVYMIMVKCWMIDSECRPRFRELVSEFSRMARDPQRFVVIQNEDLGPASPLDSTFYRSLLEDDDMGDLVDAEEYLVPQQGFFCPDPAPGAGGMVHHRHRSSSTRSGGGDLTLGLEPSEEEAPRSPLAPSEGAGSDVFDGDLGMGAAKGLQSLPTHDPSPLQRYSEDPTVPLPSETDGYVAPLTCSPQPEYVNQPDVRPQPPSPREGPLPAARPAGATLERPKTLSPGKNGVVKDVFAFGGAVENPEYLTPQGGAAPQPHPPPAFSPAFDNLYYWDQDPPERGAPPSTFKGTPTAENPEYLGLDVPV", "assay": "ErbB Enzyme Assay (HTRF KinEASE-TK), Assay 2", "type": "biochemical", "description": "The kinases were incubated with 250 nM TK-substrate biotin (CisBio, part of cat #62TKOPEC) at 1 mM ATP along with test compounds in a buffer consisting of 25 mM HEPES, pH 7.4, 10 mM MgCl2, 0.01% Triton X-100, and 2% DMSO in a volume of 8 μL. […] After 30-minute incubation at 22° C., the reaction was quenched by adding 8 μL of quench solution containing 62.5 nM Sa-XL665 and 0.25×TK-Ab-Cryptate in HTRF detection buffer (all from CisBio, part of cat #62TKOPEC)."}, "EGFR": {"target": "EGFR (Homo sapiens (Human), UniProt P00533)", "sequence (P00533 25-1210)": "as the sequence (P00533 25-1210) above", "assay": "ErbB Enzyme Assay (HTRF KinEASE-TK), Assay 3", "type": "biochemical"}, "[2]": {"details": "EGF-stimulated EGFR WT phosphorylation"}, "[3]": {"details": "cellular EGFR WT phosphorylation, EGF-stimulated"}, "[4]": {"details": "cellular ErbB2 YVMA phosphorylation"}}}
{"smiles": "C=CC(=O)N1CCC(Oc2ccc3ncnc(Nc4ccc(Oc5cnc6cn(C)nc6c5)c(C)c4)c3n2)CC1", "note": "[Example 14, 1-(4-((4-((3-methyl-4-((2-methyl-2H-pyrazolo[4,3-b]pyridin-6-yl)oxy)phenyl)amino)pyrido[3,2-d]pyrimidin-6-yl)oxy)piperidin-1-yl)prop-2-en-1-one]", "values": [{"measurement": "IC50", "setting": "EGFR wild type (EGFR WT); [2]", "result": "≥ 5000", "unit": "nM"}, {"measurement": "IC50", "setting": "[1]; ErbB2 YVMA phosphorylation", "result": 48.4, "unit": "nM"}, {"measurement": "IC50", "setting": "ErbB2 WT; ErbB2 WT enzyme", "result": 432, "unit": "nM"}, {"measurement": "IC50", "setting": "EGFR; EGFR enzyme", "result": "≥ 10000", "unit": "nM"}]}
{"smiles": "C=CC(=O)N1CCN(c2ccc3ncnc(Nc4ccc(Oc5ccn6ncnc6c5)c(C)c4F)c3n2)C[C@@H]1C(F)F", "note": "(racemic) [Example 297]", "values": [{"measurement": "IC50", "setting": "EGFR wild type (EGFR WT); [3]", "result": 239, "unit": "nM"}, {"measurement": "IC50", "setting": "[1]; [4]", "result": 12.8, "unit": "nM"}, {"measurement": "IC50", "setting": "ErbB2 WT; ErbB2 WT enzyme assay", "result": 11.4, "unit": "nM"}, {"measurement": "IC50", "setting": "EGFR; EGFR enzyme assay", "result": 168, "unit": "nM"}]}
{"smiles": "C=CC(=O)N1C[C@H]2CC[C@@H]1[C@H](c1ccc3ncnc(Nc4ccc(Oc5ccn6ncnc6c5)c(C)c4F)c3n1)C2", "note": "[Example 397]", "values": [{"measurement": "IC50", "setting": "EGFR wild type (EGFR WT); [3]", "result": "≥ 5000", "unit": "nM"}, {"measurement": "IC50", "setting": "[1]; [4]", "result": 49.2, "unit": "nM"}, {"measurement": "IC50", "setting": "ErbB2 WT; ErbB2 WT enzyme assay", "result": 9.7, "unit": "nM"}, {"measurement": "IC50", "setting": "EGFR; EGFR enzyme assay", "result": 1120, "unit": "nM"}]}
{"smiles": "C=CC(=O)N1CCN(c2ccc3ncnc(Nc4ccc(Oc5ccc6c(c5)ncn6C)c(C)c4F)c3n2)CCC1(C)C", "note": "[Example 68, 1-(4-(4-((2-fluoro-3-methyl-4-((1-methyl-1H-benzo[d]imidazol-5-yl)oxy)phenyl)amino)pyrido[3,2-d]pyrimidin-6-yl)-7,7-dimethyl-1,4-diazepan-1-yl)prop-2-en-1-one]", "values": [{"measurement": "IC50", "setting": "EGFR wild type (EGFR WT); [2]", "result": "≥ 5000", "unit": "nM"}, {"measurement": "IC50", "setting": "[1]; ErbB2 YVMA phosphorylation", "result": 73.8, "unit": "nM"}, {"measurement": "IC50", "setting": "ErbB2 WT; ErbB2 WT enzyme", "result": 664, "unit": "nM"}, {"measurement": "IC50", "setting": "EGFR; EGFR enzyme", "result": "≥ 10000", "unit": "nM"}]}
{"smiles": "C=CC(=O)N1CCN(c2ccc3ncnc(Nc4ccc(Oc5ccn6ncnc6c5)c(C(F)(F)F)c4)c3n2)CC1(C)C", "note": "[Example 242, 1-(4-(4-((4-([1,2,4]triazolo[1,5-a]pyridin-7-yloxy)-3-(trifluoromethyl)phenyl)amino)pyrido[3,2-d]pyrimidin-6-yl)-2,2-dimethylpiperazin-1-yl)prop-2-en-1-one]", "values": [{"measurement": "IC50", "setting": "EGFR wild type (EGFR WT); [2]", "result": 3460, "unit": "nM"}, {"measurement": "IC50", "setting": "[1]; ErbB2 YVMA phosphorylation", "result": 95.6, "unit": "nM"}, {"measurement": "IC50", "setting": "ErbB2 WT; ErbB2 WT enzyme", "result": 184, "unit": "nM"}, {"measurement": "IC50", "setting": "EGFR; EGFR enzyme", "result": 4430, "unit": "nM"}]}
{"smiles": "C=CC(=O)N1CCC(Oc2ccc3ncnc(Nc4ccc(Oc5cnn6c(C)cnc6c5)c(C)c4F)c3n2)CC1", "note": "[Example 55, 1-(4-((4-((2-fluoro-3-methyl-4-((3-methylimidazo[1,2-b]pyridazin-7-yl)oxy)phenyl)amino)pyrido[3,2-d]pyrimidin-6-yl)oxy)piperidin-1-yl)prop-2-en-1-one]", "values": [{"measurement": "IC50", "setting": "EGFR wild type (EGFR WT); [2]", "result": 930, "unit": "nM"}, {"measurement": "IC50", "setting": "[1]; ErbB2 YVMA phosphorylation", "result": 50.8, "unit": "nM"}, {"measurement": "IC50", "setting": "ErbB2 WT; ErbB2 WT enzyme", "result": 2040, "unit": "nM"}, {"measurement": "IC50", "setting": "EGFR; EGFR enzyme", "result": "≥ 10000", "unit": "nM"}]}
{"smiles": "C=CC(=O)N1CCC12CN(c1ccc3ncnc(Nc4ccc(Oc5ccn6ncnc6c5)c(Cl)c4F)c3n1)C2", "note": "[Example 360]", "values": [{"measurement": "IC50", "setting": "EGFR wild type (EGFR WT); [3]", "result": 178, "unit": "nM"}, {"measurement": "IC50", "setting": "[1]; [4]", "result": 4.1, "unit": "nM"}, {"measurement": "IC50", "setting": "ErbB2 WT; ErbB2 WT enzyme assay", "result": 8.8, "unit": "nM"}, {"measurement": "IC50", "setting": "EGFR; EGFR enzyme assay", "result": 121, "unit": "nM"}]}
{"smiles": "C=CC(=O)N1CC2CCC(C1)N2c1ccc2ncnc(Nc3ccc(Oc4cnc5c(c4)ncn5C)c(C)c3F)c2n1", "note": "[Example 244, 1-(8-(4-((2-fluoro-3-methyl-4-((3-methyl-3H-imidazo[4,5-b]pyridin-6-yl)oxy)phenyl)amino)pyrido[3,2-d]pyrimidin-6-yl)-3,8-diazabicyclo[3.2.1]octan-3-yl)prop-2-en-1-one]", "values": [{"measurement": "IC50", "setting": "EGFR wild type (EGFR WT); [2]", "result": 317, "unit": "nM"}, {"measurement": "IC50", "setting": "[1]; ErbB2 YVMA phosphorylation", "result": 16.7, "unit": "nM"}, {"measurement": "IC50", "setting": "ErbB2 WT; ErbB2 WT enzyme", "result": 46.4, "unit": "nM"}, {"measurement": "IC50", "setting": "EGFR; EGFR enzyme", "result": 178, "unit": "nM"}]}
{"smiles": "C=CC(=O)N1CCN(c2nc3c(Nc4ccc(Oc5ccc6cn(C)nc6c5)c(C)c4)ncnc3cc2OC)CC1", "note": "[Example 158, 1-(4-(7-methoxy-4-((3-methyl-4-((2-methyl-2H-indazol-6-yl)oxy)phenyl)amino)pyrido[3,2-d]pyrimidin-6-yl)piperazin-1-yl)prop-2-en-1-one]", "values": [{"measurement": "IC50", "setting": "EGFR wild type (EGFR WT); [2]", "result": 366, "unit": "nM"}, {"measurement": "IC50", "setting": "[1]; ErbB2 YVMA phosphorylation", "result": 16.5, "unit": "nM"}, {"measurement": "IC50", "setting": "ErbB2 WT; ErbB2 WT enzyme", "result": 39.1, "unit": "nM"}, {"measurement": "IC50", "setting": "EGFR; EGFR enzyme", "result": 321, "unit": "nM"}]}
{"smiles": "C=CC(=O)N1C[C@H]2CC[C@@H]1[C@@H](c1ccc3ncnc(Nc4ccc(Oc5ccn6ncnc6c5)c(C)c4F)c3n1)C2", "note": "[Example 398]", "values": [{"measurement": "IC50", "setting": "EGFR wild type (EGFR WT); [3]", "result": "≥ 5000", "unit": "nM"}, {"measurement": "IC50", "setting": "[1]; [4]", "result": 74, "unit": "nM"}, {"measurement": "IC50", "setting": "ErbB2 WT; ErbB2 WT enzyme assay", "result": 15.4, "unit": "nM"}, {"measurement": "IC50", "setting": "EGFR; EGFR enzyme assay", "result": 736, "unit": "nM"}]}
{"smiles": "C=CC(=O)N1CCN(c2ccc3ncnc(Nc4ccc(Oc5ccc6scnc6c5)c(C)c4)c3n2)CC1(C)C", "note": "[Example 432]", "values": [{"measurement": "IC50", "setting": "EGFR wild type (EGFR WT); [3]", "result": 281, "unit": "nM"}, {"measurement": "IC50", "setting": "[1]; [4]", "result": 15.2, "unit": "nM"}, {"measurement": "IC50", "setting": "ErbB2 WT; ErbB2 WT enzyme assay", "result": 37, "unit": "nM"}, {"measurement": "IC50", "setting": "EGFR; EGFR enzyme assay", "result": 210, "unit": "nM"}]}
{"smiles": "C=CC(=O)N1CCN(c2ccc3ncnc(Nc4ccc(Oc5cnc6c(c5)ncn6C)c(C)c4)c3n2)CC1(C)C", "note": "[Example 250]", "values": [{"measurement": "IC50", "setting": "EGFR wild type (EGFR WT); [3]", "result": 3200, "unit": "nM"}, {"measurement": "IC50", "setting": "[1]; [4]", "result": 9, "unit": "nM"}, {"measurement": "IC50", "setting": "ErbB2 WT; ErbB2 WT enzyme assay", "result": 27.9, "unit": "nM"}, {"measurement": "IC50", "setting": "EGFR; EGFR enzyme assay", "result": 4120, "unit": "nM"}]}
{"smiles": "C=CC(=O)N1CC[C@@H]2C[C@@H](c3ccc4ncnc(Nc5cc(C)c(Oc6ccn7ncnc7c6)cc5F)c4n3)C[C@@H]21", "note": "(single isomer, unassigned) [Example 224]", "values": [{"measurement": "IC50", "setting": "EGFR wild type (EGFR WT); [2]", "result": "≥ 5000", "unit": "nM"}, {"measurement": "IC50", "setting": "[1]; ErbB2 YVMA phosphorylation", "result": 91.3, "unit": "nM"}, {"measurement": "IC50", "setting": "ErbB2 WT; ErbB2 WT enzyme", "result": 58, "unit": "nM"}, {"measurement": "IC50", "setting": "EGFR; EGFR enzyme", "result": 2290, "unit": "nM"}]}
